# US10576097B2, “URLC10-derived peptide and vaccine containing same” (ONCOTHERAPY SCIENCE, INC., priority 2014, dated 2020)
# Tests used:
# Assay type in all cases: cell-based, human
# [1] = test system: peptide-pulsed C1R-A11; assay: In vitro CTL induction, IFN-gamma ELISPOT assay (HLA-A*1101); conditions: CTLs induced from HLA-A*1101-positive donors, against peptide-pulsed C1R-A11, compared with control
# Text: (§1) Monocyte-derived dendritic cells (DCs) were used as the antigen-presenting cell to induce a cytotoxic T lymphocyte (CTL) response against peptides presented on human leukocyte antigens (HLAs). As described in the other sections, DCs were generated in vitro (Nakahara S et al., Cancer Res 2003, 63(14): 4112-8). Specifically, peripheral-blood mononuclear cells isolated from healthy volunteers (HLA-A*1101-positive) with the Ficoll-Paque plus solution (Pharmacia) were separated by attaching to plastic tissue culture dishes (Becton Dickinson) and concentrated as a monocyte fraction. The monocyte-concentrated population was cultured in the presence of 1000 IU/ml granulocyte macrophage colony-stimulating factor (R&D System) and 1000 IU/ml interleukin(IL)-4 (R&D System) in an AIM-V medium (Invitrogen) containing 2% heat-inactivated autologous serum (AS). After seven days of culturing, the cytokine-induced DCs were pulsed with 20 micro-g/ml each of the synthesized peptides in an AIM-V medium at 37 degrees C. for three hours in the presence of 3 micro-g/ml beta 2-microglobulin. The generated cells appeared to express on their cell surface DC-associated molecules such as CD80, CD83, CD86 and HLA class II (data not shown). Next, these peptide-pulsed DCs were inactivated by X-ray irradiation (20 Gy), and mixed in a 1:20 ratio with autologous CD8^+ T cells obtained by positive selection using the CD8 Positive Isolation Kit (Dynal). These culture products were seeded in a 48-well plate (Corning). Each well was made to contain 1.5×10^4 peptide-pulsed DCs, 3×10^5 CD8^+ T cells and 10 ng/ml IL-7 (R&D System) in 0.5 ml of the AIM-V/2% AS medium. Three days later, these culture products were added with a final concentration of 20 IU/ml IL-2 (CHIRON). On day 7 and day 14, T cells were further stimulated with peptide-pulsed autologous DCs. The DCs were prepared every time by the same method as above. On day 21, after the third peptide stimulation, CTLs were examined against the peptide-pulsed C1R-A11 by a human interferon (IFN)-gamma enzyme-linked immunospot (ELISPOT) assay (Tanaka H et al., Br J Cancer 2001, 84(1): 94-9; Umano Y et al., Br J Cancer 2001, 84(8): 1052-7; Uchida N et al., Clin Cancer Res 2004, 10(24): 8577-86; Suda T et al., Cancer Sci 2006, 97(5): 411-9; Watanabe T et al., Cancer Sci 2005, 96(8): 498-506).
# (§2) To examine specific CTL activity, an IFN-gamma ELISPOT assay and an IFN-gamma enzyme-linked immunosorbent assay (ELISA) were performed. Specifically, peptide-pulsed C1R-A11 (1×10^4 cells/well) was prepared as the stimulator cell. The induced CTLs, i.e., CTL lines and CTL clones, were used as the responder cell. The IFN-gamma ELISPOT assay and IFN-gamma ELISA were performed according to the manufacturer's manual.
# [2] = test system: peptide-pulsed C1R-A03; assay: In vitro CTL induction, IFN-gamma ELISPOT assay (HLA-A*0301); conditions: CTLs induced from HLA-A*0301-positive donors, against peptide-pulsed C1R-A03, compared with control
# Text: as §1, with “(HLA-A*0301-positive)” for “(HLA-A*1101-positive)”, “C1R-A03” for “C1R-A11”
# as §2, with “C1R-A03” for “C1R-A11”
# [3] = test system: C1R-A03 cells pulsed with the respective peptide; assay: IFN-gamma ELISA of CTL lines and CTL clones (HLA-A*0301)
# Method: CTLs were propagated in culture using methods similar to those disclosed by Riddell et al. (Walter E A et al., N Engl J Med 1995, 333(16): 1038-44; Riddell S R et al., Nat Med 1996, 2(2): 216-23). The CTLs were co-cultured in a total of 25 ml AIM-V medium containing 5% AS (AIM-V/5% AS) and 40 ng/ml anti-CD3 antibody with two types of Mitomycin C-treated human B lymphoblastoid cell lines at 5×10^6 cells/flask. One day after beginning of the culturing, 120 IU/ml IL-2 was added to the culture. On days 5, 8 and 11, a fresh AIM-V/5% AS medium containing 30 IU/ml IL-2 was added to the culture (Tanaka H et al., Br J Cancer 2001, 84(1): 94-9; Umano Y et al., Br J Cancer 2001, 84(8): 1052-7; Uchida N et al., Clin Cancer Res 2004, 10(24): 8577-86; Suda T et al., Cancer Sci 2006, 97(5): 411-9; Watanabe T et al., Cancer Sci 2005, 96(8): 498-506).
# Dilution of CTLs was carried out to make 1 and 10 cells/well in 96 round-bottomed microtiter plates (Nalge Nunc International). The CTLs were co-cultured with two types of Mitomycin C-treated human B lymphoblastoid cell lines at 1×10^4 cells/well in a total of 150 micro-l/well 5% AS-containing AIM-V (AIM-V/5% AS) medium with 30 ng/ml anti-CD3 antibody and 125 IU/ml IL-2. Ten days later, IL-2 was added to the medium at 50 micro-l/well to reach a final concentration of 125 IU/ml. On day 14, the CTL activity was tested, and the CTL clones were propagated using the same method as described above (Uchida N et al., Clin Cancer Res 2004, 10(24): 8577-86; Suda T et al., Cancer Sci 2006, 97(5): 411-9; Watanabe T et al., Cancer Sci 2005, 96(8): 498-506).
# as §2, with “C1R-A03” for “C1R-A11”
sequence,measurement,setting,value
"ALLLVVALPR (a peptide derived from URLC10) [SEQ ID NO 12, URLC10-derived 10mer peptide, start position 63]",peptide-specific CTL activity (IFN-gamma production),[1],specific IFN-gamma production was not observed
same,peptide-specific CTL activity (IFN-gamma production),[2],potent IFN-gamma production
"AMERPKPEEK (a peptide derived from URLC10) [SEQ ID NO 16, URLC10-derived 10mer peptide, start position 149]",peptide-specific CTL activity (IFN-gamma production),[2],potent IFN-gamma production
"CSAGCAAMER (a peptide derived from URLC10) [SEQ ID NO 15, URLC10-derived 10mer peptide, start position 143]",peptide-specific CTL activity (IFN-gamma production),[2],potent IFN-gamma production
"GLWLAILLLL (a peptide derived from URLC10) [SEQ ID NO 27, URLC10-derived 10mer peptide, start position 204]",peptide-specific CTL activity (IFN-gamma production),[2],potent IFN-gamma production
"GPPINSSVFK (a peptide derived from URLC10) [SEQ ID NO 17, URLC10-derived 10mer peptide, start position 183]",peptide-specific CTL activity (IFN-gamma production),[2],potent IFN-gamma production
"IAAVKIFPR (a peptide derived from URLC10) [SEQ ID NO 3, URLC10-derived 9mer peptide, start position 127]",peptide-specific CTL activity (IFN-gamma production),[2],potent IFN-gamma production
"ILLLLASIAA (a peptide derived from URLC10) [SEQ ID NO 30, URLC10-derived 10mer peptide, start position 209]",peptide-specific CTL activity (IFN-gamma production),[2],potent IFN-gamma production
"KIFPRFFMV (a peptide derived from URLC10) [SEQ ID NO 6, URLC10-derived 9mer peptide, start position 131]",peptide-specific CTL activity (IFN-gamma production),[2],potent IFN-gamma production
"LLEEPMPFFY (a peptide derived from URLC10) [SEQ ID NO 18, URLC10-derived 10mer peptide, start position 161]",peptide-specific CTL activity (IFN-gamma production),[2],potent IFN-gamma production
"LLLVVALPR (a peptide derived from URLC10) [SEQ ID NO 5, URLC10-derived 9mer peptide, start position 64]",peptide-specific CTL activity (IFN-gamma production),[2],potent IFN-gamma production
"MPFFYLKCCK (a peptide derived from URLC10) [SEQ ID NO 22, URLC10-derived 10mer peptide, start position 166]",IFN-gamma production of CTL clone,"[3]; CTL clone by limiting dilution, against peptide-pulsed C1R-A03 cells",Potent IFN-gamma production
same,IFN-gamma production of CTL line,[3]; CTL line against peptide-pulsed versus non-pulsed target cells,potent IFN-gamma production
same,peptide-specific CTL activity (IFN-gamma production),[2],potent IFN-gamma production
"RGGRGSPYR (a peptide derived from URLC10) [SEQ ID NO 9, URLC10-derived 9mer peptide, start position 18]",peptide-specific CTL activity (IFN-gamma production),[1],potent IFN-gamma production
"RQAPAGGRR (a peptide derived from URLC10) [SEQ ID NO 8, URLC10-derived 9mer peptide, start position 7]",peptide-specific CTL activity (IFN-gamma production),[2],specific IFN-gamma production was not observed
"RVWCHVCER (a peptide derived from URLC10) [SEQ ID NO 1, URLC10-derived 9mer peptide, start position 98]",peptide-specific CTL activity (IFN-gamma production),[1],potent IFN-gamma production
same,peptide-specific CTL activity (IFN-gamma production),[2],potent IFN-gamma production
"VIAAVKIFPR (a peptide derived from URLC10) [SEQ ID NO 14, URLC10-derived 10mer peptide, start position 126]",peptide-specific CTL activity (IFN-gamma production),[2],potent IFN-gamma production
